Measured values reported in patent US8536229B2, “Acetylene derivatives having MGluR 5 antagonistic activity” (Novartis AG, priority 2001, dated 2013).

What was measured:
[1] = tested on: stress-induced hyperthermia in mice; experiment: stress-induced hyperthermia in mice; format: in vivo; conditions: reduced from 0.92±0.09° C., p<0.001
Method: A. Lecci at al., Psychopharmacol. 101, 255-261]. At doses of about 0.1 to about 30 mg/kg p.o., the agents of the invention reverse the stress-induced hyperthermia.

## CCOC(=O)N1CC[C@@H]2[C@H]1CCC[C@@]2(O)C#Cc1ccc(F)cc1 (racemic) [Example 1i, (±)-(3aRS,4SR,7aRS)-4-(4-Fluoro-phenylethynyl)-4-hydroxy-octahydro-indole-1-carboxylic acid ethyl ester]
other
  melting point: 115 to 116 °C

## CC(=O)N[C@@H]1CCC[C@@](O)(C#Cc2cccc(C)c2)C1 (racemic) [Example 6m, (±)-(1RS,3SR)-N-(3-hydroxy-3-m-tolylethynyl-cyclohexyl)-acetamide]
other
  melting point: 152 to 155 °C

## CCOC(=O)N[C@@H]1CCC[C@@](O)(C#Cc2cccc(C)c2)C1 (racemic) [Example 6o, (±)-(1RS,3SR)-(3-Hydroxy-3-m-tolylethynyl-cyclohexyl)-carbamic acid ethyl ester]
other
  melting point: 106 to 107 °C

## CCOC(=O)N[C@@H]1CCC[C@@](O)(C#Cc2cccc(F)c2)C1 (racemic) [Example 6u, (±)-(1RS,3SR)-[3-(3-Fluoro-phenylethynyl)-3-hydroxy-cyclohexyl]-carbamic acid ethyl ester]
other
  melting point: 121 to 123 °C

## COC(=O)N1CC[C@@H]2[C@H]1CCC[C@@]2(O)C#Cc1cccc(C)c1 [Example 1, (−)-(3aR,4S,7aR)-4-Hydroxy-4-m-tolylethynyl-octahydro-indole-1-carboxylic acid methyl ester]
[1]; 0.1 mg/kg p.o.
  stress-induced hyperthermia: 0.56±0.06 °C
[1]; 1 mg/kg p.o.
  stress-induced hyperthermia: 0.42±0.06 °C
[1]; 10 mg/kg p.o.
  stress-induced hyperthermia: 0.18±0.05 °C

## CCOC(=O)N1CC[C@@H]2[C@H]1CCC[C@@]2(O)C#Cc1cccc(C)c1 [Example 1a, (−)-(3aR,4S,7aR)-4-Hydroxy-4-m-tolylethynyl-octahydro-indole-1-carboxylic acid ethyl ester]
other
  melting point: 118 to 121 °C

## Cc1cccc(C#C[C@]2(O)CCC[C@@H]3[C@H]2CCN3C(=O)c2ccco2)c1 [Example 1b, (−)-(3aR,4S,7aR)-Furan-2-yl-(4-hydroxy-4-m-tolylethynyl-octahydro-indol-1-yl)-methanone]
other
  melting point: 195.5 to 196.5 °C
